Experimental data published in patent EP1136503A1, “NOVEL PHYSIOLOGICALLY ACTIVE SUBSTANCE, PROCESS FOR PRODUCING THE SAME AND UTILIZATION THEREOF” (Takeda Chemical Industries, Ltd., priority 1998, dated 2001).
Values belong to the substance of their own block, whether it stands above or below them. Where no end group is shown, it is not given here.

Key:
rat SENR [1] = test: GTPγS binding to rat SENR-expression CHO cell membrane fraction; assay type: biochemical; conditions: peptide in various concentrations, 25°C 1 hour
Procedure: The [^35S] -guanosine 5'-(γ-thio)triphosphate binding promoting activity of bovine SENR ligand (SEQ ID NO:21) on SENR-expression CHO cell membrane fraction was measured by the following method. First, preparation of membrane fraction is described. To 1 x 10^8 of CHO/SENR cells was added 10 ml of a homogenate buffer (10 mM NaHCO3, 5 mM EDTA, 0.5 mM PMSF, 1 µg/ml pepstatin, 4 µg/ml E64, 20 µg/ml leupeptin), which was homogenized by using Polytron (12,000 rpm, 1 min.). The cell homogenate was subjected to centrifugation (1,000 g, 15 mins.) to give the supernatant. Next, the supernatant was subjected to ultracentrifugation (Beckman type 30 rotor, 30,000 rpm, 1 hour). The resulting precipitate was used as a rat SENR-expression CHO cell membrane.
The GTPγS binding activity was measured as follows. The rat SENR-expression CHO cell membrane was diluted with a buffer for membrane dilution (50 mM Tris-hydrochloride buffer (pH 7.4), 5 mM MgCl2, 150 mM NaCl, 1 µM GDP) to prepare a cell membrane fraction solution for assay having a protein concentration of 30 µg/ml. […] After washing twice with 1.5 ml of a buffer for filter washing (50 mM Tris-hydrochloride buffer (pH 7.4), 5 mM MgCl2, 1 mM EDTA, 0.1% BSA), radioactivity of the filter was measured using a liquid scintillation counter.

[2] = Blood pressure of rats under anesthesia; assay type: in vivo, Male Wistar rats; conditions: 10 nmols/kg intravenous, 8 rats, average + standard error
Procedure: The activity of the synthetic SENR ligand polypeptides ① and ② (SEQ ID NO:7 and SEQ ID NO:8) in various concentrations, which were synthesized in EXAMPLES 12 and 13, on blood pressure of rats under anesthesia was measured by the following method. Male Wistar rats of 8 to 9 weeks old (purchased from Nippon Crea Co.) were anesthetized with Nembutal injection (Dai-Nippon Pharmaceutical Co., 50 mg/ml sodium pentobarbital, 50 mg/kg i.p.). A catheter (SP-55) for blood pressure measurement connected with a transducer was inserted into the left carotid artery and a catheter (SP-35) for intravenous injection into the left femoral vein. The synthetic ligand was dissolved in physiological saline containing 0.05% BSA, which was cannulated through the left femoral vein in a dose of 1, 10 or 100 nmol/kg. The blood pressure was continuously recorded by means of a polygraph (manufactured by NEC Sanei Co.). […] The hypotensive action was shown by the average blood pressure reduced by administration of SENR ligand to the average blood pressure prior to administration. […]

rat SENR [3] = test: cAMP synthesis suppression in rat SENR-expression CHO cells; assay type: cell-based; conditions: forskolin
Procedure: A method for the cAMP synthesis suppressing activity of the bovine SENR ligand (SEQ ID NO:21) synthesized in EXAMPLE 14 on rat SENR-expression CHO cells is shown below. The CHO/SENR cells were inoculated on a 24-well plate in 5 × 10^4 cells/well followed by cultivation for 48 hours. The cells were then washed with Hanks' buffer (pH 7.4) containing 0.2 mM 3-isobutyl-methylxanthine, 0.05% BSA and 20 mM HEPES (hereinafter Hanks' buffer (pH 7.4) containing 0.2 mM 3-isobutyl-methylxanthine, 0.05% BSA and 20 mM HEPES is referred to as a reaction buffer). Thereafter, 0.5 ml of the reaction buffer was added to the system, which was kept in the medium for 30 minutes. The reaction buffer was removed and 0.25 ml of a fresh reaction buffer was added to the cells. Then, 0.25 ml of the reaction buffer containing various amounts of bovine SENR ligand and 2 µM forskolin was added to the cells followed by reacting at 37°C for 24 minutes. By adding 100 µl of 20% perchloric acid, the reaction was terminated. The reaction mixture was then allowed to stand on ice for an hour to extract intracellular CAMP. The amount of cAMP in the extract was measured using cAMP EIA kit (Amersham Pharmacia Biotech).

[4] = target: rat SENR (sensory epithelium neuropeptide-like receptor) (rat); test: cell-based or functional assay
human SENR (human) = test: cell-based or functional assay

Substance: GPPSECFWKYCV (cysteine pairing not given here) [Bovine SENR ligand, Cys 6th and 11th form intramolecular disulfide bond]
amount of [^35S]-guanosine 5'-(γ-thio)triphosphate bound to the membrane fraction (rat SENR [1]): dose-dependently increased
Average blood pressure decreased [2]: 35.7 ± 7.0 mmHg
amount of intracellular cAMP (rat SENR [3]; increasing peptide concentration): decreased dose dependently
amount of intracellular cAMP (rat SENR [3]; peptide 0.3 nM, 37°C 24 minutes): obviously reduced

cAMP synthesis suppressing activity (forskolin-stimulated; concentration at which an obvious reduction was seen) [4]: 0.3 nM
Substance: bovine SENR ligand (peptide)

cAMP synthesis suppressing activity (forskolin-stimulated; concentration at which an obvious reduction was seen) (human SENR (human)): 0.3 nM
Substance: human SENR ligand (human urotensin II) (peptide)
